Test results taken from ChEMBL document CHEMBL1177670 (Bioorg Med Chem, 2010).
Active and inactive are the calls of the source. The rule behind the calls is not given here.

Legend:
D(2) dopamine receptor [1] = biological target: T1, D(2) dopamine receptor (Homo sapiens, UniProt P14416); assay: biochemical
D(3) dopamine receptor [2] = biological target: T2, D(3) dopamine receptor (Homo sapiens, UniProt P35462); assay: biochemical
D(4) dopamine receptor [3] = biological target: T3, D(4) dopamine receptor (Homo sapiens, UniProt P21917); assay: biochemical
T3 sequence (P21917 whole entry): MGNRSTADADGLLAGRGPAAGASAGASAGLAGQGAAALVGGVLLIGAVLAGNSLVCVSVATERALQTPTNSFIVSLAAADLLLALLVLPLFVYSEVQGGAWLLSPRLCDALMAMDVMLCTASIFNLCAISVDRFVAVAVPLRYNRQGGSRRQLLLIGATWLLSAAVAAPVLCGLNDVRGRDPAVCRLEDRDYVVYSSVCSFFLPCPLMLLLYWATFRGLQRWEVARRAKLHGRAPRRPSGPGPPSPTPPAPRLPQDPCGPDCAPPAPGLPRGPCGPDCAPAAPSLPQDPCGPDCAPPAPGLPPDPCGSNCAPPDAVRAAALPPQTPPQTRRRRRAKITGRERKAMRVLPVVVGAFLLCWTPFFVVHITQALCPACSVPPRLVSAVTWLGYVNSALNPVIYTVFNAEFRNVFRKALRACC

D(2) dopamine receptor [4] = biological target: T1, D(2) dopamine receptor
D(3) dopamine receptor [5] = biological target: T2, D(3) dopamine receptor
D(4) dopamine receptor [6] = biological target: T3, D(4) dopamine receptor
[7] = biological target: T4, Sigma non-opioid intracellular receptor 1 (Cavia porcellus, UniProt Q60492)
T4 sequence (Q60492 whole entry): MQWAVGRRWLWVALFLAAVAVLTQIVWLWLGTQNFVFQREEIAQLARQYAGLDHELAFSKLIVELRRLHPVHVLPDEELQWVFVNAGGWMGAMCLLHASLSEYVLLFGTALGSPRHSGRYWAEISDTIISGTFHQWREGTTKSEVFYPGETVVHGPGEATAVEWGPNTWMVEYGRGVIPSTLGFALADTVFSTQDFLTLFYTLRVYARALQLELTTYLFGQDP
Description: (§1) Displacement of [3H](+)-pentazocine from sigma 1 receptor in guinea pig brain homogenates after 1 hr by liquid scintillation counting

D(2) dopamine receptor [8] = biological target: T1, D(2) dopamine receptor; assay: Antagonist at human dopamine D2 long receptor expressed in HEK293 cells assessed as inhibition of forskolin-induced adenylyl cyclase activity at 10 nM after 20 mins by spectrophotometric analysis in presence of quinpirole; type: functional, cell-based
[9] = biological target: T4, Sigma non-opioid intracellular receptor 1; assay: biochemical
Description: as §1

T2 sequence (P35462 whole entry): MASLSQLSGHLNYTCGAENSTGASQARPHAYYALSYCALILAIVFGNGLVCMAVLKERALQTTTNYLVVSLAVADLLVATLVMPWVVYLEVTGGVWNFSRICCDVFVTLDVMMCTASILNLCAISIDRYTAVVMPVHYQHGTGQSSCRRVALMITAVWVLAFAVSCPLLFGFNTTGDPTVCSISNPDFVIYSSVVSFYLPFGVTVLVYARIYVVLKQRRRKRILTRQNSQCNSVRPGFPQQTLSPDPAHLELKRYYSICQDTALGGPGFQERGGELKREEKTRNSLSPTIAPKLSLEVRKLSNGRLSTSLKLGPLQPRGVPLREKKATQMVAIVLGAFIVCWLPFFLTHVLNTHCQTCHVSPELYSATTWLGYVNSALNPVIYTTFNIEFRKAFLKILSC
T1 sequence (P14416 whole entry): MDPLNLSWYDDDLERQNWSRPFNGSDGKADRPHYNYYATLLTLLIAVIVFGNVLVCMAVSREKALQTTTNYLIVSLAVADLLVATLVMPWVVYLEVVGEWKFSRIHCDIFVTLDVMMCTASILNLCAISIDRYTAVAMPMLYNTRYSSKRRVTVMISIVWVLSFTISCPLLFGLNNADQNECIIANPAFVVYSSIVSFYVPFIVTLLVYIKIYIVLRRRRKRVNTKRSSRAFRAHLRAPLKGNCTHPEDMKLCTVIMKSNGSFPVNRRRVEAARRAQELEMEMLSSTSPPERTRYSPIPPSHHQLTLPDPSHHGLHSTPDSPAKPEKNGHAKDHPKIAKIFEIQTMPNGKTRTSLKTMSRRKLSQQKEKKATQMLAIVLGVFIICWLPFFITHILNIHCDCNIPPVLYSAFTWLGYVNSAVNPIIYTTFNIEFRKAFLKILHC

SMILES	Ki (D(2) dopamine receptor [1]) [nM]	Ki (D(3) dopamine receptor [2]) [nM]	Ki (D(4) dopamine receptor [3]) [nM]	further results
O=C1N(Cc2cn(CCF)nn2)CN(c2ccccc2)C12CCN(Cc1coc3ccccc13)CC2	2	0.9	978	
OC1(c2ccc(Br)cc2)CCN(Cc2c[nH]c3ccccc23)CC1				Ki (D(2) dopamine receptor [4]): 4.8 nM; Ki (D(3) dopamine receptor [5]): 110 nM; Ki (D(4) dopamine receptor [6]): 652 nM; Ki [7]: 12.1 nM
OC1(c2ccc(Br)cc2)CCN(Cc2c[nH]c3ccc(OCCF)cc23)CC1		188	344	
CN1CN(c2ccccc2)C2(CCN(Cc3coc4ccccc34)CC2)C1=O	7.1	2.1	492	
OC1(c2ccc(Br)cc2)CCN(Cc2cc3ccccc3o2)CC1			254	
OC1(c2ccc(Cl)cc2)CCN(Cc2c[nH]c3ccccc23)CC1				Ki (D(3) dopamine receptor [5]): 104 nM; Ki (D(4) dopamine receptor [6]): 449 nM
OC1(c2ccc(I)cc2)CCN(Cc2cc3ccccc3o2)CC1		49	245	
OC1(c2ccc(I)cc2)CCN(Cc2coc3ccccc23)CC1	2.4			
COc1ccc2[nH]cc(CN3CCC(O)(c4ccc(Br)cc4)CC3)c2c1				Ki (D(2) dopamine receptor [4]): 2.5 nM; Ki (D(4) dopamine receptor [6]): 700 nM; Ki [7]: 108 nM
OC1(c2ccc(Br)cc2)CCN(Cc2c[nH]c3cccc(OCCF)c23)CC1		849	668	
COc1ccc2[nH]cc(CN3CCC(O)(c4ccccc4)CC3)c2c1	1400	2930	> 10000	
COc1cccc2[nH]cc(CN3CCC(O)(c4ccc(I)cc4)CC3)c12		122		Activity (D(2) dopamine receptor [8]): Active
COc1ccc2[nH]cc(CN3CCC(O)(c4ccc(I)cc4)CC3)c2c1	0.9	100	129	Activity (D(2) dopamine receptor [8]): Active
O=C1N(CCF)CN(c2ccccc2)C12CCN(Cc1coc3ccccc13)CC2	8	9.3	945	
OC1(c2ccc(I)cc2)CCN(Cc2c[nH]c3ncccc23)CC1	61	1590	634	
COc1cccc2[nH]cc(CN3CCC(O)(c4ccc(Br)cc4)CC3)c12				Ki (D(2) dopamine receptor [4]): 2.3 nM; Ki (D(3) dopamine receptor [5]): 190 nM; Ki (D(4) dopamine receptor [6]): 840 nM; Ki [7]: 2560 nM
OC1(c2ccc(Br)cc2)CCN(Cc2coc3ccccc23)CC1	6.6	10.9		
OC1(c2ccccc2)CCN(Cc2cc3ccccc3s2)CC1	46.8	142		Ki [9]: 2.13 nM
OC1(c2ccc(Br)cc2)CCN(Cc2c[nH]c3ncccc23)CC1	212	2980	620	
COc1ccc2[nH]cc(CN3CCC(O)(c4ccc(Cl)cc4)CC3)c2c1				Ki (D(2) dopamine receptor [4]): 4.2 nM; Ki (D(3) dopamine receptor [5]): 204 nM; Ki (D(4) dopamine receptor [6]): > 3500 nM; Ki [7]: 242 nM
OC1(c2ccc(I)cc2)CCN(Cc2c[nH]c3ccccc23)CC1	3.8			
CSc1ccc(C2(O)CCN(Cc3c[nH]c4ncccc34)CC2)cc1	254	4940	937	
COc1cccc2[nH]cc(CN3CCC(O)(c4ccc(Cl)cc4)CC3)c12				Ki (D(2) dopamine receptor [4]): 4.2 nM; Ki (D(3) dopamine receptor [5]): 250 nM; Ki (D(4) dopamine receptor [6]): > 2000 nM; Ki [7]: > 5000 nM
